Experiment: Pharmacokinetics of 5-MeO-DMT and bufotenine after inhalation
Format: in vivo, human
Settings: within 1 to 4 hours

SMILES: COc1ccc2[nH]cc(CCN(C)C)c2c1 [5-MeO-DMT]
- accumulation upon repeated administration: No accumulation

Reference: patent US20250170099A1, “TREATMENT OF POSTNATAL DEPRESSION” (GH RESEARCH IRELAND LIMITED, priority 2022, published 2025)
